Where two headings read alike, the source gives them in different places. Residues, ends and D or L forms follow the SMILES beside them.
Key:
[1] = target: T1, Bcl-xL (Homo sapiens, UniProt Q07817, DEL27-82); test: Isothermal titration calorimetry of peptides with Bcl-xL; assay type: binding; conditions: ITC, 25 °C, peptide 800 μM
T1 construct: 6xHis-SUMO (N, cleaved yes); made in house; host or cells: Escherichia coli BL21(DE3)
Excerpt: The codon-optimized DNAs encoding Bcl-xLΔTM (the flexible loop, residues 27–82, and the transmembrane domain, residues, 197–233, are deleted, total […], named as Bcl-xL thereafter) was ordered from Genewiz (www.genewiz.com). The recombinant Bcl-xL with N-terminal SUMO-fused 6× His tag was generated by the insertion of the PCR products into pETSUMO vector (Invitrogen; www.thermofisher.com) and verified by sequencing. Recombinant proteins were expressed in Escherichia coli (BL21/DE3) strain overnight at 20 °C and proteins were induced by 0.4 mM isopropyl β-D-thiogalactoside. Cells were harvested by centrifugation and the pellets were re-suspended and passed through a cell disruptor (www.avestin.com) three times. After ultracentrifugation at 40,000 rpm for 1 h, the supernatant for His-tagged recombinant proteins were purified through Ni^2+ affinity column, cleaved by Ulp-1, followed by HiLoad Superdex S-75 26/60 column (GE Healthcare). The purified proteins were dialyzed against stabilization buffer containing 20 mM Tris-HCl (pH 7.0) and 100 mM NaCl and concentrated to 10–15 mg/ml in a Centriprep-30 (Amicon) for subsequent crystallization and biochemical analysis.
Microcalorimetry was used for all measurements. Bcl-xL protein was prepared at a final concentration of 10 μM in a buffer containing 25 mM Tris-HCl (pH 8.0). The ABT-263 was dissolved in the same buffer to a final concentration of 500 μM, while the peptides were dissolved to a final concentration of 800 μM. All experiments were carried out at 25 °C. Data were analyzed using the software Origin (OriginLab).

[2] = test system: HepG2-NTCP cells; test: Cell viability (CCK8 assay) of HBV-infected HepG2-NTCP cells; assay type: cell-based; set-up: Cell viability: unit not given here; conditions: for Cell viability: day 8 after HBV infection
Description: Fig. 6 The HBx-aa118–127 peptide, but not ABT-263, inhibits HBV replication and transcription in HepG2.2.15 cells. a HepG2.2.15 cells were treated with 125, 250, 500, and 1000 nM of ABT-263 for 2 days. Cytoplasmic HBV viral particles were isolated and the viral DNA replication intermediates were quantified (Methods). The results represent the fold change of the replicative intermediates in HepG2.2.15 cells from the indicated treatments, compared with those without treatment. b HepG2.2.15 cells were treated with the indicated concentrations of ABT-263 for 2 days. The lysate was analyzed by immunoblotting using antibodies to caspase-3 (CASP3) and GAPDH (glyceraldehyde 3-phosphate dehydrogenase). c, d The HBx-aa113–135, HBx-aa118–127, or the control peptides were delivered into HepG2.2.15 cells using PEP-1 nanoparticles (Methods). The levels of HBV DNA (c) and the levels of HBV S-antigen (HBsAg) expression (d) in culture medium collected from HepG2.2.15 cells were measured (Methods). The results are shown as fold change compared to that of the control peptide. e–g HepG2-NTCP cells were transfected with HBx118–127 peptide with concentration of […], and 50 μg/ml or unrelated control peptide during HBV infection (multiplicity of infection (MOI) = 200), respectively. e HBV e-antigen (HBeAg), f HBV DNA, and g cell viability were measured at day 8 after HBV infection. Data shown represent mean ± SD. Significance is indicated on the top. Not significant (ns): *P < 0.05, **P < 0.01; two-tailed unpaired t tests (n = 3 biologically independent samples). Source data are provided as a Source Data file
HBx-aa118-127 peptide treatment.
obvious cytotoxicity at concentrations between 12.5-200 µg/mL (Fig. 6g). Taken together, […]

[3] = test system: HepG2-NTCP cells; test: as above; assay type: cell-based; set-up: unit not given here; conditions: CCK8, 200 µg/mL, day 8 after HBV infection
[4] = Bcl-xL 10 μM in 25 mM Tris-HCl (pH 8.0), read-out: dissociation constant

## CC[C@H](C)[C@H](NC(=O)[C@H](CCC(=O)O)NC(=O)[C@H](CCC(=O)O)NC(=O)CNC(=O)[C@H](CC(C)C)NC(=O)[C@H](CCC(=O)O)NC(=O)[C@H](CCC(=O)O)NC(=O)[C@H](Cc1c[nH]c2ccccc12)NC(=O)[C@H](CC(=O)O)NC(=O)[C@H](CCCCN)NC(=O)[C@H](Cc1ccccc1)NC(=O)[C@@H](NC(=O)[C@H](CS)NC(=O)[C@H](CC(=O)O)NC(=O)[C@@H](N)CCCCN)C(C)C)C(=O)N[C@@H](CCCNC(=N)N)C(=O)N[C@@H](CC(C)C)C(=O)N[C@@H](CCCCN)C(=O)N[C@H](C(=O)N[C@@H](Cc1ccccc1)C(=O)N[C@H](C(=O)N[C@@H](CC(C)C)C(=O)NCC(=O)O)C(C)C)C(C)C [HBx-aa113–135]
[1]; [4]
  Kd: 26.5 ± 13.7 µM

## CC[C@H](C)[C@H](NC(=O)[C@H](CCC(=O)O)NC(=O)[C@H](CCC(=O)O)NC(=O)CNC(=O)[C@H](CC(C)C)NC(=O)[C@H](CCC(=O)O)NC(=O)[C@H](CCC(=O)O)NC(=O)[C@H](Cc1c[nH]c2ccccc12)NC(=O)[C@H](CC(=O)O)NC(=O)[C@@H](N)CCCCN)C(=O)O [HBx-aa118–127] (H-KDWEELGEEI-OH)
[1]; [4]
  Kd: 10 ± 2.95 µM
[1]; Bcl-xL 10 μM presaturated with ABT-263, 25 mM Tris-HCl (pH 8.0), read-out: dissociation constant, Bcl-xL presaturated with ABT-263
  Kd: 21 ± 4.05 µM
[2]; CCK8, 12.5 µg/mL, replicate 1
  Cell viability: 94.534
[2]; CCK8, 12.5 µg/mL, replicate 2
  Cell viability: 96.726
[2]; CCK8, 12.5 µg/mL, replicate 3
  Cell viability: 98.429
[2]; CCK8, 50 µg/mL, replicate 1
  Cell viability: 92.904
[2]; CCK8, 50 µg/mL, replicate 2
  Cell viability: 96.191
[2]; CCK8, 50 µg/mL, replicate 3
  Cell viability: 97.303
[2]; HepG2-NTCP, 12.5, 50, and 200 µg/ml
  cytotoxicity (in words): no obvious cytotoxicity
[3]; replicate 1
  Cell viability: 96.104
[3]; replicate 2
  Cell viability: 101.260
[3]; replicate 3
  Cell viability: 101.966

From paper PMC6642116, “Structural and functional analyses of hepatitis B virus X protein BH3-like domain and Bcl-xL interaction” (Nature Communications, 2019)
